One data set addresses human MRP3 (Homo sapiens, UniProt O15438). The data set is described as follows: Vesicular transport assay, inside-out membrane vesicles expressing human MRP3. As to conditions: positive substrate 20 μM, 10 min; human MRP3. On the procedure: (§1) Inside-out membrane vesicles (5 mg protein/mL), prepared from insect cells expressing human multidrug resistance-associated protein (MRP) 2, MRP3, MRP4, breast cancer resistance protein (BCRP), bile salt export pump (BSEP), and multidrug resistance protein (MDR) one and rat Mrp2, Mrp4, Bcrp, and Bsep, and vesicles (5 mg protein/mL; prepared from the insect cells expressing no ABC transporter; serving as negative control) were obtained from Genomembrane (Kanazawa, Japan).
(§2) The test Danshen compounds at 100 µM final concentration were separately incubated with the membrane vesicles for 10 min. Buffer C (50 mM MOPS-tris, 70 mM KCl, 7.5 mM MgCl2, pH 7.0) was used for preincubation and incubation, while buffer D (40 mM MOPS-tris, 70 mM KCl, pH 7.0) was used for vesicle washing. The transport rate (pmol/mg protein/min) of the test Danshen compound was calculated using Equation (2): Transport=(CV×VV)/T/WV (2) where C V, V V, T, and W V represent concentration of the compound in vesicular lysates supernatant (μM), volume of the lysates (μL), incubation time (10 min), and amount of vesicle protein amount per well (0.05 mg), respectively. Differential transport of the test Danshen compound between ATP-containing vesicles and AMP-containing vesicles was defined as net transport ratio (TransportATP/TransportAMP ratio). […] All the incubation samples were analyzed by liquid chromatography/mass spectrometry.

In the next data set the target is human MRP2 (Homo sapiens, UniProt Q92887). As to the kind of experiment: Vesicular transport assay, inside-out membrane vesicles expressing human MRP2. To be noted: positive substrate 20 μM, 10 min; human MRP2. Here is the method:
as §1, §2

A further data set has as its target rat Mrp2 (Rattus norvegicus, UniProt Q63120). The data set is described as follows: Vesicular transport assay, inside-out membrane vesicles expressing rat Mrp2. As to conditions: positive substrate 20 μM, 10 min; rat Mrp2. Here is the method: as §1, §2
A further data set addresses T1, OATP1B3 (Homo sapiens, UniProt Q9NPD5).
T1 sequence (Q9NPD5 1-702): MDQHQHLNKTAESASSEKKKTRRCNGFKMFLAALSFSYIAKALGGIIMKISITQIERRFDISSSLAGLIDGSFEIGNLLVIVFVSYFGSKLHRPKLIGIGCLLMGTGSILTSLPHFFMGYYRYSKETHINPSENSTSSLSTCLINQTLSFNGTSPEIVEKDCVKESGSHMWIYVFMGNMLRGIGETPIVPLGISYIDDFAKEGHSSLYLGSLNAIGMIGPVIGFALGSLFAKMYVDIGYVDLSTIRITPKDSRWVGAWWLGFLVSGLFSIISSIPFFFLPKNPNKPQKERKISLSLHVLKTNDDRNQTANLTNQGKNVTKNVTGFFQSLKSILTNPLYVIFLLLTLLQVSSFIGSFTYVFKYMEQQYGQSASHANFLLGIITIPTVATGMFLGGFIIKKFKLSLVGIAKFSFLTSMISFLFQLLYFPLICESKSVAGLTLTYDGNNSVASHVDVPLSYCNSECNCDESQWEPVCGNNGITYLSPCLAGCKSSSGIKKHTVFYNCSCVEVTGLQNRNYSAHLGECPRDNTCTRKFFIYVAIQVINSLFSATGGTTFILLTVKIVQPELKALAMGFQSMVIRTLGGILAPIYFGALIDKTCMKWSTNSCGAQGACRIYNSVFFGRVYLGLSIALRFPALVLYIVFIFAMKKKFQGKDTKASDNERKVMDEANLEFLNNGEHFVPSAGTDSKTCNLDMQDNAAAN
The data set is described as follows: Cellular transport assay, HEK-293 cells expressing human OATP1B3. As to conditions: positive substrate 20 μM, 10 min; human OATP1B3. On the procedure: (§3) Briefly, HEK-293 cells were grown, at 37°C and 5% CO2, in Dulbecco’s modified Eagle’s medium, which was fortified with 10% fetal bovine serum, 1% minimal essential medium nonessential amino acids, and 1% antibiotic-antimycotic solution. A day before transfection, cells were seeded onto 24-well poly-D-lysine-coated plates at a density of 2 × 10^5 cells per well. After incubation at 37°C and 5% CO2 for 24 h, the expression plasmid and the empty vector were introduced separately into the HEK293 cells with Lipofectamine 2000 transfection reagent (Invitrogen, Carlsbad, CA, United States), according to the manufacturer’s protocol to yield transporter-expressing cells and mock cells, respectively.
(§4) Transport studies were performed 48 h after the transfection. […] Differential uptake between the transfected cells and mock cells was defined as net transport ratio (TransportTC/TransportMC ratio), where TransportTC and TransportMC are the transport rates of a test Danshen compound into transfected and mock cells, respectively. […] The determination was performed under linear uptake conditions by incubation for 5 min. Table 1 summarizes the final concentrations of the test Danshen compounds for different transporters. All the incubation samples were analyzed by liquid chromatography/mass spectrometry.
(§5) GraFit software (version 5.0; Erithacus Software Ltd, Surrey, United Kingdom) was used to determine the K m and V max values by nonlinear regression analysis of initial transport rates as a function of substrate concentration.

Another data set concerns the target T2, human OATP1B1 (Homo sapiens, UniProt Q9Y6L6).
T2 sequence (Q9Y6L6 1-691): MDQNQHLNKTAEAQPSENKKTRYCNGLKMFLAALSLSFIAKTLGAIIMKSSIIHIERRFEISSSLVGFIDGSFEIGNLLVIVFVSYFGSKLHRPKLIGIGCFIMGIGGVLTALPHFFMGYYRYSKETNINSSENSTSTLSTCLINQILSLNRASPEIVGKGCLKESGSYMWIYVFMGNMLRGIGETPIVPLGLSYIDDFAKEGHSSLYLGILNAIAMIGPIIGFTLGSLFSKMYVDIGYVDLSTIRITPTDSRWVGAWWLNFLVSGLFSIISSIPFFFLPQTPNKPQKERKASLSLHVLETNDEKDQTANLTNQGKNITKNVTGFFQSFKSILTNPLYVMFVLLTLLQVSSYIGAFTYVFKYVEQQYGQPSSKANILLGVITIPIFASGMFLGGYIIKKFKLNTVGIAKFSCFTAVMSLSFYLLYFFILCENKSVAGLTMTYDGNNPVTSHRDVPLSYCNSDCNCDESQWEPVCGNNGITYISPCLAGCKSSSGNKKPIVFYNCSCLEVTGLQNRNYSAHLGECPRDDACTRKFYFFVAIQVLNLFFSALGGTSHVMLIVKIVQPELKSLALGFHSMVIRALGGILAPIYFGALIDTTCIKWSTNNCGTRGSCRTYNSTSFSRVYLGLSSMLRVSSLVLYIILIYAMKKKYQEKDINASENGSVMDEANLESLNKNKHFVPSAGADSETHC
The data set is described as follows: Cellular transport assay, HEK-293 cells expressing human OATP1B1. As to conditions: positive substrate 20 μM, 10 min; human OATP1B1. Here is the method: as §3, §4, §5

The target in another data set is T3, rat Oatp1b2 (Rattus norvegicus, UniProt Q9QZX8).
T3 sequence (Q9QZX8 1-687): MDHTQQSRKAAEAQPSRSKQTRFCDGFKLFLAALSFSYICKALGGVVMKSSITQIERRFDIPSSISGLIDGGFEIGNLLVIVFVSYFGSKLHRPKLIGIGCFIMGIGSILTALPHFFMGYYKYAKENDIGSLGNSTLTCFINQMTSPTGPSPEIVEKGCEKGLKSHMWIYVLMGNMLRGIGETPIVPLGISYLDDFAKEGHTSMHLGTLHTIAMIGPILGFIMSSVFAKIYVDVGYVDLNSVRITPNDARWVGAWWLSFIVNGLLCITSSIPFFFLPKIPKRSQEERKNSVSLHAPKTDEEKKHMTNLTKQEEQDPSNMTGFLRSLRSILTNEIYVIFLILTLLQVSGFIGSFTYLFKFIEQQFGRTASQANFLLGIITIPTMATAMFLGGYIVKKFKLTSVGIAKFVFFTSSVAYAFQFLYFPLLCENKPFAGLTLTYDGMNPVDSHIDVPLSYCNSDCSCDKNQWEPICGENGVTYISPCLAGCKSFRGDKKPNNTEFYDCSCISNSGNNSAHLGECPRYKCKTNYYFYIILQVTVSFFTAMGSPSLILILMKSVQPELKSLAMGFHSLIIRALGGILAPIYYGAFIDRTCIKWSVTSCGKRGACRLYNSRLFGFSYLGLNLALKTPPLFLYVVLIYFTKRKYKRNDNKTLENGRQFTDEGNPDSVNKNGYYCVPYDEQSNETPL
The data set is described as follows: Cellular transport assay, HEK-293 cells expressing rat Oatp1b2. As to conditions: positive substrate 20 μM, 10 min; rat Oatp1b2. Here is the method: as §3, §4, §5

In the next data set the target is human MDR1 (Homo sapiens, UniProt P08183). The data set is described as follows: Vesicular transport assay, inside-out membrane vesicles expressing human MDR1. As to conditions: positive substrate 20 μM, 10 min; human MDR1. On the procedure: as §1, §2
The next data set has as its target T4, human OAT2 (Homo sapiens, UniProt Q9Y694).
T4 sequence (Q9Y694 1-546 isoform Q9Y694-2): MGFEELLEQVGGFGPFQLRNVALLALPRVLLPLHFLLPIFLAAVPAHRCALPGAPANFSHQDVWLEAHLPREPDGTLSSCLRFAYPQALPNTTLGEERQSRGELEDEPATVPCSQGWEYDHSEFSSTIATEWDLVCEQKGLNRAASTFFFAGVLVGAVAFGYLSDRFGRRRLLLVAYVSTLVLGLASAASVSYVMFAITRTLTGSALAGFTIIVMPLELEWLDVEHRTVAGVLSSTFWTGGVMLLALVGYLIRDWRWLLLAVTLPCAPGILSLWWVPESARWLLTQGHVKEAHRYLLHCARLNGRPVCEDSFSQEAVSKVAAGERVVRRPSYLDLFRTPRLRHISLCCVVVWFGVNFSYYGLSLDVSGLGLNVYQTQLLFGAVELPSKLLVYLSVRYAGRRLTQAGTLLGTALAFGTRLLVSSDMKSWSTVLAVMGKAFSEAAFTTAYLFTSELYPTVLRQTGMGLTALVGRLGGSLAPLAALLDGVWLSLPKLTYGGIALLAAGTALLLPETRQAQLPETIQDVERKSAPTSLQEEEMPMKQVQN
The data set is described as follows: Cellular transport assay, HEK-293 cells expressing human OAT2. To be noted: positive substrate 20 μM, 10 min; human OAT2. On the procedure:
as §3, §4, §5

The target in another data set is T5, rat Oat2 (Rattus norvegicus, UniProt Q5RLM2).
T5 sequence (Q5RLM2 1-535): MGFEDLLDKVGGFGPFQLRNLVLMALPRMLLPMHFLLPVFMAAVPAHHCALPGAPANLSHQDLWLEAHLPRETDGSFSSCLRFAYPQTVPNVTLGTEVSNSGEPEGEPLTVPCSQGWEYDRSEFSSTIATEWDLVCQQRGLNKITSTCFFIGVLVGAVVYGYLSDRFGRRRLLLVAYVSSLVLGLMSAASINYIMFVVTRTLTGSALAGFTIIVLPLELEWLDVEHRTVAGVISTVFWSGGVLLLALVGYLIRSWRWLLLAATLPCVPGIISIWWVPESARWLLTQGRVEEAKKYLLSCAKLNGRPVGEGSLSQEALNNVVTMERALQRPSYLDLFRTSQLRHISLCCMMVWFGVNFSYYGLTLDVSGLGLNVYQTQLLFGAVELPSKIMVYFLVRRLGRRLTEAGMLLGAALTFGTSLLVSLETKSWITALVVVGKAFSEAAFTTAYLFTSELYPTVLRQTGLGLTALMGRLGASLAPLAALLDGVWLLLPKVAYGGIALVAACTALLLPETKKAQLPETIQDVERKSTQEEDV
As to the kind of experiment: Cellular transport assay, HEK-293 cells expressing rat Oat2. As to conditions: positive substrate 20 μM, 10 min; rat Oat2. Here is the method:
as §3, §4, §5

Substrate in data set [1]: O=C(/C=C/c1ccc(O)c(O)c1)O[C@H](Cc1ccc(O)c(O)c1)C(=O)O
The data set is described as follows: cells, lysate or membranes named. As to conditions: other: human renal apical uptake OAT4; 5 min incubation, concentrations in Table 1; 37.0 °C.

By Vmax is commonly meant the rate approached at saturating substrate.

rat Mrp2, sequence (Q63120 whole entry): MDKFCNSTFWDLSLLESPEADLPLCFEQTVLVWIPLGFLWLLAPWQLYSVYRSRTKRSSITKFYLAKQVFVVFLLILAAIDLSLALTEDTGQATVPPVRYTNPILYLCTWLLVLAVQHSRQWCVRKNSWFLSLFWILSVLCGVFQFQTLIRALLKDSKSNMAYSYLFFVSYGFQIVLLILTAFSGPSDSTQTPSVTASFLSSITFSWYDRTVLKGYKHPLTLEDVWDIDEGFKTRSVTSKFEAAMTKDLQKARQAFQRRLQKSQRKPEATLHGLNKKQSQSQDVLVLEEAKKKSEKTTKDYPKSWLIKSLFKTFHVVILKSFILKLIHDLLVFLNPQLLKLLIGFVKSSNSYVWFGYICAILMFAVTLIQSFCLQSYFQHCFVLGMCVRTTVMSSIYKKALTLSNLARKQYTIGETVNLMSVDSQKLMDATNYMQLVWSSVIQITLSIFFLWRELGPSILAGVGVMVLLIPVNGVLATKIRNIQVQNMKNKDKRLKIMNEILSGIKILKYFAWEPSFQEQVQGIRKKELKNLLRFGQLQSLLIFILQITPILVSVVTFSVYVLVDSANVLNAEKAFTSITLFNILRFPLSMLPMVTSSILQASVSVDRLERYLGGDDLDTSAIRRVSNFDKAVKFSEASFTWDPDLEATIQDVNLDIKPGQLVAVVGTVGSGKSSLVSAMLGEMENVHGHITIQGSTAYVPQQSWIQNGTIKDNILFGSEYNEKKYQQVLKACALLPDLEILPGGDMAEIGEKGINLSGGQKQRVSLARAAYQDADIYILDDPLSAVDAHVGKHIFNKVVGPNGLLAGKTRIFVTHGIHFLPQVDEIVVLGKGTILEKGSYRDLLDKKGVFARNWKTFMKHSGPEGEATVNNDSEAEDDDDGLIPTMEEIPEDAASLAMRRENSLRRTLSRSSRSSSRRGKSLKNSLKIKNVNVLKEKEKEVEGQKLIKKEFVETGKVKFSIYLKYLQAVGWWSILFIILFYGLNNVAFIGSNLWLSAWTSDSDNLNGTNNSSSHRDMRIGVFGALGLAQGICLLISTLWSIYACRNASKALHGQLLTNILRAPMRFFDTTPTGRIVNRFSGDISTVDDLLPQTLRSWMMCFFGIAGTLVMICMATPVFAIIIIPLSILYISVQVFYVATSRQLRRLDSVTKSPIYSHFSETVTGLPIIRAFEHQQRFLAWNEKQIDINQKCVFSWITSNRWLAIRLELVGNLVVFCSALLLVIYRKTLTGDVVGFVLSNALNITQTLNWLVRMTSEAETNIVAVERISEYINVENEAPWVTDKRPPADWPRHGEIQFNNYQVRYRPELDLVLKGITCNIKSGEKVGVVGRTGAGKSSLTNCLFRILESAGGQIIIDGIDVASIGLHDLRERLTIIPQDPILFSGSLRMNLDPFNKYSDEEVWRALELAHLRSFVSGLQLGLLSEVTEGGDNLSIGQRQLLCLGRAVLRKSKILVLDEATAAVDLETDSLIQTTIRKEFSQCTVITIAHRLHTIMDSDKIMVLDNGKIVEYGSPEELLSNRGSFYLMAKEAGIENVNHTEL
human MRP2, sequence (Q92887 whole entry): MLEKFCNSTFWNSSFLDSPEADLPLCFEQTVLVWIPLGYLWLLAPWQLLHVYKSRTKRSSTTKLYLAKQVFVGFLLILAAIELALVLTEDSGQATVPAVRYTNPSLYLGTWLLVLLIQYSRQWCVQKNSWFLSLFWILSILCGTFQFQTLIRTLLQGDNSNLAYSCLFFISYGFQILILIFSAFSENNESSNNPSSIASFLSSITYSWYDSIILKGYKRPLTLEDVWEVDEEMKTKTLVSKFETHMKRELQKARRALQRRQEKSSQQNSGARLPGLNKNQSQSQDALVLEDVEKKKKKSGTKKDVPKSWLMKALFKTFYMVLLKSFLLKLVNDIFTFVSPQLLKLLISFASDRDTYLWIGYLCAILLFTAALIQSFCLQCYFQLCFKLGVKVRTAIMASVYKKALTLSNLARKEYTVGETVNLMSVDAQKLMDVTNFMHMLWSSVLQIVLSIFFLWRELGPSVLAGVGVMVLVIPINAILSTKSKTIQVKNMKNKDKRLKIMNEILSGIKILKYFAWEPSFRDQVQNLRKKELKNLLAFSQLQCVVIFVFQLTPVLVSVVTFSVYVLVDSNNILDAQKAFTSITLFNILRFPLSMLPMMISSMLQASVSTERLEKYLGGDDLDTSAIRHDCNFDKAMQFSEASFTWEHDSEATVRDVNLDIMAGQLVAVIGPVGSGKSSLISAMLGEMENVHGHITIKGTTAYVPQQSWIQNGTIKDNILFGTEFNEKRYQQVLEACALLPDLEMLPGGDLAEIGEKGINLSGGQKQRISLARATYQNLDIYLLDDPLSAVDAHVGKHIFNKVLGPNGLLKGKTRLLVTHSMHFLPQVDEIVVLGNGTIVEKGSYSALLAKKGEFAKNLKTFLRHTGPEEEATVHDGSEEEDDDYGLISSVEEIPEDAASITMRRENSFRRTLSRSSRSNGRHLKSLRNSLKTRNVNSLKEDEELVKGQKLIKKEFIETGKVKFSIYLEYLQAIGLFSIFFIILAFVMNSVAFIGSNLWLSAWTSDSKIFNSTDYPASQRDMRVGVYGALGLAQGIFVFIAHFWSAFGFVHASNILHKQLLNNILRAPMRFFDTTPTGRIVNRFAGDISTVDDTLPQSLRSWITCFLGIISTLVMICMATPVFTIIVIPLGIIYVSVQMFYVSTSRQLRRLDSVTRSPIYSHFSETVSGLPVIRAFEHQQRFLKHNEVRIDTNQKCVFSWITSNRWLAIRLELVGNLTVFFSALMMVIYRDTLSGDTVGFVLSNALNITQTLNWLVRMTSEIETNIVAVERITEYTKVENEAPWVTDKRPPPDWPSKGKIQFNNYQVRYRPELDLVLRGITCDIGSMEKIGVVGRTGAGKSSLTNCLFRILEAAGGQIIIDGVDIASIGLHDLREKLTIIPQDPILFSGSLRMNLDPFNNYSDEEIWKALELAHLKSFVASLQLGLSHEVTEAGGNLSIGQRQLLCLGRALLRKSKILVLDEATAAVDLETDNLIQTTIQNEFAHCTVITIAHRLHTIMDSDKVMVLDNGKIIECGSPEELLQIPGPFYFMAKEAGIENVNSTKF
human MDR1, sequence (P08183 whole entry): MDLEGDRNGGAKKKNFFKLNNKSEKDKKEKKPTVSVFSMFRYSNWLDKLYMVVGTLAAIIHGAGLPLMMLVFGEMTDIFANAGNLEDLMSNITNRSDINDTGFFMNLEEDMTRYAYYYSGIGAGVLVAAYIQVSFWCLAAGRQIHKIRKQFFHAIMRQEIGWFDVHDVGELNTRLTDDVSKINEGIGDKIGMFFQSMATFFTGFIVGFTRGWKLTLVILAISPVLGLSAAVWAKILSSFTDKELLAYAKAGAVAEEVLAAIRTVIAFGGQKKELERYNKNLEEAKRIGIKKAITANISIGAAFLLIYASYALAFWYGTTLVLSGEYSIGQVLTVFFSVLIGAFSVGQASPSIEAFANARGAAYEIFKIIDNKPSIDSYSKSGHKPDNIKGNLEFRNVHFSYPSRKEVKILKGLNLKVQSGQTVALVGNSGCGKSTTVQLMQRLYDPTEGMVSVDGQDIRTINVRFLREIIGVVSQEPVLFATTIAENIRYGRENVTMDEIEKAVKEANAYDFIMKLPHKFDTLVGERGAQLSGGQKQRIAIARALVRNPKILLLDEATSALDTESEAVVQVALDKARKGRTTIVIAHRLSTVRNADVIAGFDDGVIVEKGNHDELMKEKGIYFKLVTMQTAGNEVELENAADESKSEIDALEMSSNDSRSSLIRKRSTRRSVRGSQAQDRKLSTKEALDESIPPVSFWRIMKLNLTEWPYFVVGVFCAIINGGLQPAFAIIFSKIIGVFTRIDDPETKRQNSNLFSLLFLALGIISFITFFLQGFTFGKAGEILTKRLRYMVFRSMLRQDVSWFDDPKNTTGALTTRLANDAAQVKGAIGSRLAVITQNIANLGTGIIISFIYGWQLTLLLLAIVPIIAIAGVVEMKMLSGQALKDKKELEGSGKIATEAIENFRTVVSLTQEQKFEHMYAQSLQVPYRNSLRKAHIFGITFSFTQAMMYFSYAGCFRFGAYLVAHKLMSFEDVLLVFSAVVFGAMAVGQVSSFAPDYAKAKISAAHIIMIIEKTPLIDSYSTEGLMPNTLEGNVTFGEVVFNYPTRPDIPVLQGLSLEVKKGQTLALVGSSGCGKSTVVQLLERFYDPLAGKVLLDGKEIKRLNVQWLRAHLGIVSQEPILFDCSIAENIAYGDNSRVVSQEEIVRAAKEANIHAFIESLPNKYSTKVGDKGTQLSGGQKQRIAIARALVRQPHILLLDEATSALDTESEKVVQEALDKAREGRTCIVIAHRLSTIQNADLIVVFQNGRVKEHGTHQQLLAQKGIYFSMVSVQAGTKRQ

As to `C[C@]12CC[C@@H]3c4ccc(O)cc4CC[C@H]3[C@@H]1CC[C@@H]2O[C@@H]1O[C@H](C(=O)O)[C@@H](O)[C@H](O)[C@H]1O` [E217βG, estradiol-17β-D-glucuronide, reference compound], the figures for the “TransportATP/TransportAMP ratio, positive substrate” value on human MRP3, on human MRP2 and at rat Mrp2 were 6.79 ± 1.49 (E217βG), 7.23 ± 1.04 (E217βG) and 3.54 ± 0.32 (E217βG), respectively.

As to `CC1(C)[C@@H](O[C@H]2O[C@H](C(=O)O)[C@@H](O)[C@H](O)[C@H]2O[C@@H]2O[C@H](C(=O)O)[C@@H](O)[C@H](O)[C@H]2O)CC[C@]2(C)[C@H]3C(=O)C=C4[C@@H]5C[C@@](C)(C(=O)O)CC[C@]5(C)CC[C@@]4(C)[C@]3(C)CC[C@@H]12` [GL, glycyrrhizin, reference compound], the “TransportTC/TransportMC ratio, positive substrate” value at OATP1B3 is 33.1 ± 0.5 (GL); on human OATP1B1 it was 79.5 ± 1.3 (GL); on rat Oatp1b2 it was 121 ± 2 (GL). The “TransportATP/TransportAMP ratio, positive substrate” value at human MDR1 is 5.13 ± 0.87 (GL).

As for `CCCCC[C@H](O)/C=C/[C@@H]1[C@@H](C/C=C\CCCC(=O)O)[C@@H](O)C[C@H]1O` [PGF2α, prostaglandin F2α, reference compound], the “TransportTC/TransportMC ratio, positive substrate” value on human OAT2 is given as 70.2 ± 6.6 (PGF2α); on rat Oat2, 24.3 ± 3.3 (PGF2α).

B1: human OAT4 (Homo sapiens) (protein)
chain: MAFSKLLEQAGGVGLFQTLQVLTFILPCLMIPSQMLLENFSAAIPGHRCWTHMLDNGSAVSTNMTPKALLTISIPPGPNQGPHQCRRFRQPQWQLLDPNATATSWSEADTEPCVDGWVYDRSVFTSTIVAKWDLVCSSQGLKPLSQSIFMSGILVGSFIWGLLSYRFGRKPMLSWCCLQLAVAGTSTIFAPTFVIYCGLRFVAAFGMAGIFLSSLTLMVEWTTTSRRAVTMTVVGCAFSAGQAALGGLAFALRDWRTLQLAASVPFFAISLISWWLPESARWLIIKGKPDQALQELRKVARINGHKEAKNLTIEVLMSSVKEEVASAKEPRSVLDLFCVPVLRWRSCAMLVVNFSLLISYYGLVFDLQSLGRDIFLLQALFGAVDFLGRATTALLLSFLGRRTIQAGSQAMAGLAILANMLVPQDLQTLRVVFAVLGKGCFGISLTCLTIYKAELFPTPVRMTADGILHTVGRLGAMMGPLILMSRQALPLLPPLLYGVISIASSLVVLFFLPETQGLPLPDTIQDLESQKSTAAQGNRQEAVTVESTSL
As to B1, in data set [1], the Vmax is 4.75e-05 µmol/min/mg and the Vmax/Km was 0.15 µL/min/mg.
